# Reference: patent US20250326708A1, “LONG-ACTING SPLEEN-TARGETING CATIONIC LIPID COMPOUND COMPRISING BENZENE RING STRUCTURE, COMPOSITION COMPRISING SAME, AND USE THEREOF” (Beijing Youcarekechuang Pharmaceutical Technology Co., Ltd., priority 2024, published 2025)
# Several values for one entry are separate records, joined by “and”; a condition that tells them apart may be missing. Equal entries are not always repeated.
# Legend:
# [1] = tested on: 293T cells; assay: Fluorescence detection of Fluc-mRNA (transfection efficiency) of LNP preparations; type: cell-based; conditions: Fluc-mRNA LNP
# Summary of the method: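 293T cells seeded at 10,000 per well in 96-well plates overnight, then dosed with LNPs (cationic lipid:DSPC:cholesterol:DMG-PEG2000 49:10:39.5:1.5 molar; total lipid:mRNA 15:1 w/w) carrying 0.3 μg Fluc-mRNA. After 24 h, luciferase kit reagents added and fluorescence intensity per well read by IVIS imaging.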
# [2] = tested on: female BALB/C mice; assay: Expression of delivered mRNA in mice in vivo (IVIS in vivo imaging); conditions: for Expression level of mRNA in vivo, times that of YK-904: vs YK-904; for Average radiation intensity, in vivo imaging: 10 μg Fluc-mRNA via tail vein; for Expression level of mRNA in vivo, times that of SM-102: vs SM-102; for Expression level of mRNA in vivo, times that of YK-501: vs YK-501; for Expression level of mRNA in vivo, times that of YK-506: vs YK-506; for Expression level of mRNA in vivo, times that of compound 7: vs compound 7
# Summary of the method: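 Female BALB/c mice (4–6 weeks, 17–19 g) received LNPs carrying 10 μg Fluc-mRNA via tail vein. At 6 h, 24 h, 48 h and 7 d, imaging substrate was given i.p. and, after 5 min, average radiance was measured by IVIS Spectrum imaging.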
# [3] = tested on: 293T cells; assay: Cell viability assay (CCK-8) with LNP preparations of Fluc-mRNA; type: cell-based
# Summary of the method: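 293T cells seeded at 10,000/well and cultured overnight, then given LNPs (cationic lipid:DSPC:cholesterol:DMG-PEG2000 49:10:39.5:1.5) carrying 1.5 μg Fluc-mRNA. After 24 h, viability measured by CCK-8 with 1 h incubation.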
# [4] = tested on: female BALB/C mice; assay: Expression of delivered mRNA in different organs of mice (organ imaging); type: in vivo
# Summary of the method: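 Female BALB/C mice (4–6 weeks, 17–19 g) received LNPs carrying 5 μg Fluc-mRNA subcutaneously. At 6 h, imaging substrate was given i.p.; after 5 min, whole-body and then excised-organ (heart, liver, spleen, lung, kidney, lymph) average radiance was measured by IVIS Spectrum imaging.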
# [5] = 6 hours after 5 μg Fluc-mRNA subcutaneously
structure (smiles),measurement,setting,value
"CCCCCCCCCCCOC(=O)CCCN(CCCCCCC(=O)OCCC(CCCCCC)CCCCCC)CCNC(CO)(CO)CCc1ccc(CCCCCCCC)cc1 [YK-910, 3-hexylnonyl 7-((2-((1-hydroxy-2-(hydroxymethyl)-4-(4-octylphenyl)butan-2-yl)amino)ethyl) (4-oxo-4-(undecyloxy)butyl)amino) heptanoate]","Cellular transfection efficiency, times that of HHMA",[1]; vs HHMA,8.53 times
same,"Cellular transfection efficiency, times that of I-1",[1]; vs I-1,42.56 times
same,"Cellular transfection efficiency, times that of Lipofectamine 3000",[1]; vs Lipofectamine 3000,10.24 times
same,"Cellular transfection efficiency, times that of MC3",[1]; vs MC3,90.92 times
same,"Cellular transfection efficiency, times that of SM-102",[1]; vs SM-102,6.04 times
same,"Cellular transfection efficiency, times that of YK-501",[1]; vs YK-501,186.59 times
same,"Cellular transfection efficiency, times that of YK-506",[1]; vs YK-506,13.19 times
same,"Cellular transfection efficiency, times that of YK-903",[1]; vs YK-903,345.06 times
same,"Cellular transfection efficiency, times that of YK-906",[1]; vs YK-906,313 times and 313.25 times
same,"Cellular transfection efficiency, times that of compound 7",[1]; vs compound 7,33.51 times
same,"Expression level of mRNA in vivo, times that of YK-904",[2]; 6 h,12.03 times
same,"Average radiation intensity, in vivo imaging",[2]; 6 h,13425454
same,"Expression level of mRNA in vivo, times that of SM-102",[2]; 24 h,6.78 times
same,"Expression level of mRNA in vivo, times that of YK-501",[2]; 24 h,12.21 times
same,"Expression level of mRNA in vivo, times that of YK-506",[2]; 24 h,8.28 times
same,"Expression level of mRNA in vivo, times that of YK-904",[2]; 24 h,18.49 times
same,"Expression level of mRNA in vivo, times that of compound 7",[2]; 24 h,11.50 times
same,"Average radiation intensity, in vivo imaging",[2]; 24 h,2133322
same,"Expression level of mRNA in vivo, times that of YK-904",[2]; 48 h,23.07 times
same,"Average radiation intensity, in vivo imaging",[2]; 48 h,658643
same,"Expression level of mRNA in vivo, times that of SM-102",[2]; 7 d,9.24 times
same,"Expression level of mRNA in vivo, times that of YK-501",[2]; 7 d,15.15 times
same,"Expression level of mRNA in vivo, times that of YK-506",[2]; 7 d,2.49 times
same,"Expression level of mRNA in vivo, times that of YK-904",[2]; 7 d,26.32 times
same,"Expression level of mRNA in vivo, times that of compound 7",[2]; 7 d,10.03 times
same,"Average radiation intensity, in vivo imaging",[2]; 7 d,85363
same,Cell viability,"[3]; LNP with 1.5 μg Fluc-mRNA, 24 hours, CCK-8",94%
same,Cell viability higher than that of HHMA,[3]; difference vs HHMA,17%
same,Cell viability higher than that of I-1,[3]; difference vs I-1,26%
same,Cell viability higher than that of Lipofectamine 3000,[3]; difference vs Lipofectamine 3000,63%
same,Cell viability higher than that of MC3,[3]; difference vs MC3,20%
same,Cell viability higher than that of SM-102,[3]; difference vs SM-102,12%
same,Cell viability higher than that of YK-501,[3]; difference vs YK-501,31%
same,Cytotoxicity lower than that of YK-902,[3]; difference vs YK-902,58%
same,Cell viability higher than that of YK-906,[3]; difference vs YK-906,31%
same,Cell viability higher than that of compound 7,[3]; difference vs compound 7,21%
same,Average radiation intensity of mouse organs: Heart,[4]; [5],0
same,Average radiation intensity of mouse organs: Kidney,[4]; [5],0
same,Average radiation intensity of mouse organs: Liver,[4]; [5],11424
same,Average radiation intensity of mouse organs: Lung,[4]; [5],0
same,Average radiation intensity of mouse organs: Lymph,[4]; [5],0
same,Average radiation intensity of mouse organs: Spleen,[4]; [5],242444
same,"Expression level of mRNA in the spleen, times that of SM-102","[4]; spleen, 6 h, vs SM-102",9.49 times
same,"Expression level of mRNA in the spleen, times that of YK-501","[4]; spleen, 6 h, vs YK-501",17.04 times
same,"Expression level of mRNA in the spleen, times that of YK-506","[4]; spleen, 6 h, vs YK-506",3.40 times
